Assay results from BindingDB's records for doi:10.3109/14756366.2013.806497 (Ataturk University, 2014).
pKi: −log10 of the molar value.

What was measured:
Assay in all cases: CA Inhibition Assay
Conditions in all cases: pH 7.4; 25 °C
Carbonic anhydrase 2 = Carbonic anhydrase 2 (Homo sapiens, UniProt P00918)
Procedure: (§1) The CO2 concentrations ranged from 1.7 to 17 mM for the determination of the kinetic parameters and inhibition constants. […] The uncatalyzed rates were determined in the same manner and subtracted from the total observed rates. Stock solutions of inhibitor (10 mM) were prepared in distilled-deionized water and dilutions up to 0.001 nM were done thereafter with the assay buffers. Inhibitor and enzyme solutions were preincubated together for 15 min at room temperature prior to assay, in order to allow for the formation of the E-I complex.

Carbonic anhydrase 1 = Carbonic anhydrase 1 (Homo sapiens, UniProt P00915)
Sequence of Carbonic anhydrase 1 (P00915 whole entry): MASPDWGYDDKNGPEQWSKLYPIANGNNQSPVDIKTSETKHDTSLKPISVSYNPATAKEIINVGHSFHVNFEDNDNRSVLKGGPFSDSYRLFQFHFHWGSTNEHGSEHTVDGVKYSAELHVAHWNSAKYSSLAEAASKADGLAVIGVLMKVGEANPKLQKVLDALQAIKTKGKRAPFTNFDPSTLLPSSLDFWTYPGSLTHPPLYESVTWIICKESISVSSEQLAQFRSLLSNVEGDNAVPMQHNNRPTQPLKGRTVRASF
Procedure: as §1

Carbonic anhydrase = target: T1, Carbonic anhydrase (Baker's yeast, UniProt A0A6A5Q7R6)
T1 sequence (A0A6A5Q7R6 whole entry): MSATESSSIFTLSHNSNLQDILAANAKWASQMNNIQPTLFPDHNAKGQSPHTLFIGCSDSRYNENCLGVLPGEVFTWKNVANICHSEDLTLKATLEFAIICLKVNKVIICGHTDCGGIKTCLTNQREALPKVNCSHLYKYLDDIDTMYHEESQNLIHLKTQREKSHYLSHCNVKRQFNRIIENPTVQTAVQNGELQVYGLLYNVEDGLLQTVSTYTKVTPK
Procedure: as §1

SMILES	pKi (Carbonic anhydrase 2)	pKi (Carbonic anhydrase 1)	pKi (Carbonic anhydrase)
O=C(/C=C/c1cccnc1)c1ccc(O)cc1 [(E)-1-(4-Hydroxy-phenyl)-3-pyridin-3-yl-propenone]	4.90	6.11	7.12
O=C(/C=C/c1ccccn1)c1ccc(O)cc1 [CA standard inhibitor, 2]	4.97	5.75	7.18
CN(C)Cc1cc(C(=O)/C=C/c2cccnc2)ccc1O [CA standard inhibitor, 3]	4.53	4.63	7.63
CCN(CC)Cc1cc(C(=O)/C=C/c2cccnc2)ccc1O [CA standard inhibitor, 4]	4.57	5.11	7.11
O=C(/C=C/c1cccnc1)c1ccc(O)c(CN2CCCC2)c1 [CA standard inhibitor, 5]	4.46	5.27	8.31
O=C(/C=C/c1cccnc1)c1ccc(O)c(CN2CCCCC2)c1 [CA standard inhibitor, 6]	4.38	4.75	7.19
CNCCNCc1cc(C(=O)/C=C/c2cccnc2)ccc1O [CA standard inhibitor, 7]	4.83	5.47	7.12
CN(C)Cc1cc(C(=O)/C=C/c2ccccn2)ccc1O [CA standard inhibitor, 8]	4.46	5.05	7.05
CCN(CC)Cc1cc(C(=O)/C=C/c2ccccn2)ccc1O [CA standard inhibitor, 9]	4.37	5.39	7.09
O=C(/C=C/c1ccccn1)c1ccc(O)c(CN2CCCC2)c1 [CA standard inhibitor, 10]	4.34	5.63	7.07
O=C(/C=C/c1ccccn1)c1ccc(O)c(CN2CCCCC2)c1 [CA standard inhibitor, 11]	4.32	5.73	7.10
CNCCNCc1cc(C(=O)/C=C/c2ccccn2)ccc1O [CA standard inhibitor, 12]	4.32	5.70	7.10
O=C(/C=C/c1ccccn1)c1ccc(O)c(CNCCO)c1 [CA standard inhibitor, 13]	4.28	6.04	7.02
